Experimental data reported in ChEMBL document CHEMBL3507680, “University of Dundee, Gates Library screen for HepG2 cell viability”.

test: Human HepG2 cell viability assay in 384 well format; format: toxicity, cell-based; design: dose 125 nL, time 70.5 hour; concentration not given beside the values; conditions: HepG2 cells, read-out: Inhibition

In order of rising cytotoxicity at 70.5 h:
1. Cc1ncc(C(=O)OCC2CCN(c3ccccc3)C2)s1 (stereo not given)  -126%
2. CC(C)(O)c1cc(CC2(NCC3CCCCC3)COC2)no1  -16.3%
3. COc1ccccc1NC(=O)Cn1c(=O)nc(N)c2cc(C)sc21  -16.1%
4. COc1ccccc1CN(CC1CCCO1)C(=O)c1cc(C)n[nH]1 (stereo not given)  -14.4%
5. Cc1ccc(S(=O)(=O)NC2=NCN(CCc3cccs3)CN2)cc1  -14.3%
6. Cc1c(Cn2cc(Cl)c(N)n2)cnn1C  -13.5%
7. COc1ccc(C2=C(C)C(N3CCc4ccccc43)=NS2(=O)=O)cc1  -12.7%
8. Fc1ccc(Oc2ccc(CNCC3CNc4ccnn4C3)cn2)cc1 (stereo not given)  -12.4%
9. O=C(C1CCCOC1)N1CCCCc2ccccc21 (stereo not given)  -12.1%
10. CC(NC(=O)CCCc1ccc(Cl)cc1)c1nnn[nH]1 (stereo not given)  -11.1%
11. Cc1nccn1CCC1CCCCN1Cc1ccc(N(C)C)nc1 (stereo not given)  -10.4%
12. NC(=O)C1CN(C(=O)Nc2ccc(SC(F)(F)F)cc2)CCO1 (stereo not given)  -10.3%
13. O=C(NCCCO)C1(N2CCCCC2)Cc2ccccc2C1  -10.2%
14. CCOCC1c2c(cnn2CC2CC2)CCN1Cc1nccs1 (stereo not given)  -9.55%
15. COCCn1cnc2ccc(NC(=O)c3ccccn3)cc2c1=O  -9.53%
16. CC(C)n1ccc(CN2CCN(c3cc(NC4CC4)nc(N)n3)CC2)c1  -9%
17. CC(C)OCCC1CCCCN1S(C)(=O)=O (stereo not given)  -8.81%
18. CCCc1ccc(CN2CCN(c3ncccn3)[C@@H]3CS(=O)(=O)C[C@@H]32)o1  -8.8%
19. O=C(NCC(O)COc1ccc(F)cc1)C1(c2ccc(F)cc2)CC1 (stereo not given)  -8.65%
20. N#Cc1ccc(SCCOCCO)c(F)c1  -8.55%
21. Cc1noc(-c2ccc(N3CCCC(C(=O)c4nccn4C)C3)nc2)n1 (stereo not given)  -8.49%
22. Cc1cccc(NC(=O)NCCCn2nc3ccccn3c2=O)c1C  -8.44%
23. NC1CCCCN(Cc2cc(-c3ccccc3OC(F)(F)F)no2)C1 (stereo not given)  -8.03%
24. CN1C(=O)CC(C(=O)O)C12CCN(Cc1ccc(Cl)c(Cl)c1)CC2 (stereo not given)  -7.82%
25. O=C(Nc1ccc(CC(=O)N2CCCC2)cc1)NC1CC1  -7.44%
26. Nc1nc(N2CCCC(COc3ccc(F)cc3)C2)c2nc[nH]c2n1 (stereo not given)  -7.35%
27. CS(=O)(=O)c1ccc(-c2cc(O)cc(CCC3CCCCN3)c2)cc1 (stereo not given)  -7.28%
28. Cc1nc2c(c(N(C)C)n1)CCN(C(=O)c1sccc1S(N)(=O)=O)C2  -7%
29. CCCc1nnc(SCc2cc(=O)n3c4c(sc3n2)CCCC4)[nH]1  -6.9%
30. CCSc1ccc(C(=O)NCCc2nnc(-c3ccco3)[nH]2)cn1  -6.64%
31. CNC(=O)c1cnc(/C=C/c2cc(OC)c3c(c2)OCCO3)s1  -6.59%
32. COc1cccc2c1N(S(=O)(=O)c1cc(C(=O)O)cs1)CCC2  -6.55%
33. CCOc1cc(CNC(=O)CNC(=O)CC2CCCCC2)ccn1  -6.29%
34. O=C(c1cc2c([nH]c1=O)CCC2)N1CCCCCC1c1ccncc1 (stereo not given)  -6.24%
35. O=C(CS(=O)(=O)Cc1ccc(F)cc1)NC1CCCCNC1=O (stereo not given)  -6.01%
36. O=C1CNc2ncnc(NCc3cccs3)c2N1  -5.96%
37. O=C(NCCCN1CCOCC1)c1ccc(-c2ccccc2)[nH]c1=O  -5.86%
38. CC(C)c1noc(C(C)N2CCN(Cc3cccnc3)CC2)n1 (stereo not given)  -5.62%
39. CCc1noc(CCCC(=O)N2CCCC(c3ccn[nH]3)C2)n1 (stereo not given)  -5.32%
40. CCOCC(=O)NC(C)Cc1ccccc1Br (stereo not given)  -4.95%
41. Cc1noc([C@H]2C[C@@H]3CCN(C(=O)N(C)C)C[C@H]3O2)n1  -4.62%
42. Cc1cc(C(=O)NCC(O)CN2CCCC2=O)ccc1F (stereo not given)  -4.58%
43. O=C(CN1CCCC1Cn1cncn1)NC(C1CC1)C1CC1 (stereo not given)  -4.54%
44. CC(C)(C)C(=O)N1CCC(n2nc(-c3ccco3)ccc2=O)CC1  -4.38%
45. Cn1cc(C(=O)O)c(-c2ccc(F)cc2F)n1  -4.16%
46. CC1CCCN(CCCNC(=O)Cc2csc(-c3ccoc3)n2)C1 (stereo not given)  -3.83%
47. Cc1ccc(CN(CCN(C)C)C(=O)Cc2cn3ccccc3n2)o1  -3.69%
48. Cc1c(NC(=O)NC2CCCC2)cccc1C(=O)N1CCSCC1  -3.56%
49. Cc1csc(CNC(=O)N2CCN(Cc3cc(C)on3)CC2)n1  -3.55%
50. CCN(C(=O)c1nc2c(s1)CCCN2c1ccc(C)nn1)C(C)C  -3.47%
51. CCC(OC)C(=O)NCC1CCN(c2cnn(C)c(=O)c2)CC1 (stereo not given)  -3.42%
52. c1csc(CN2CCC3(COCCN(CC4CC4)C3)C2)n1 (stereo not given)  -3.37%
53. Cc1ncccc1CNCC1CCCN1c1cccnn1 (stereo not given)  -3.29%
54. OC1(CNc2cccc(F)c2)CCNCC1  -3.17%
55. CCc1cnc(N2C[C@H]3CN(Cc4ccc(OC)cc4)C(=O)[C@H]3C2)nc1  -2.79%
56. Cc1nc(C(=O)Nc2cc(N3CCNC3=O)ccc2Cl)cs1  -2.48%
57. Cn1nc(C2CCN(C(=O)CCN3CCOCC3)CC2)c2cccnc21  -2.43%
58. COc1cccc(C(C)N2CCN(S(=O)(=O)c3ccccc3)CC2)c1 (stereo not given)  -2.4%
59. Oc1ccc(C2Nc3ccccc3C3=NCCCN32)cc1 (stereo not given)  -2.33%
60. Cc1cccc(S(=O)(=O)N2CSCC2C(=O)NCC2CC2)c1 (stereo not given)  -2.32%
61. O=C(CN1CCCC(Cn2cncn2)C1)NCCCc1ccccc1 (stereo not given)  -2.31%
62. Cc1csc(C(C)(C)NCCCS(C)(=O)=O)n1  -2%
63. O=C1NCC2(CCCN(Cc3ccc(F)cc3)C2)Oc2ccccc21 (stereo not given)  -1.98%
64. CC(O)CN1CCC(CN(C)C(=O)NC2CC2)CC1 (stereo not given)  -1.96%
65. N#Cc1cccc(CNC(=O)Nc2cccnc2N2CCCC2)c1  -1.72%
66. CCCNC(=O)C1CCCN(Cc2ccc(-n3cncn3)c(C)c2)C1 (stereo not given)  -1.68%
67. Cc1cncc(C(=O)N2CCNCC2C(=O)NCc2ccncc2)c1 (stereo not given)  -1.53%
68. Cc1nc(CN2CCC(N(C)Cc3nnc(C4CC4)n3C)C2)cs1 (stereo not given)  -1.39%
69. Cc1noc(C)c1CN1CCCCC1CCc1ccc(O)cc1 (stereo not given)  -1.36%
70. O=C(CCc1cccs1)Nc1ccnn1C1CCS(=O)(=O)C1 (stereo not given)  -1.32%
71. CS(=O)(=O)c1ccc(CNc2nccc(C(F)(F)F)n2)cc1  -1.16%
72. CN(C)C(=O)N1CCn2cc(CNC(=O)CC3CC3)nc2C1  -0.867%
73. Cc1c(C(=O)N2CCC(C(=O)c3nc4ccccc4s3)CC2)cnn1C  -0.714%
74. Cc1ncccc1C(=O)NC1CC(=O)N(CC(F)(F)F)C1 (stereo not given)  -0.154%
75. CNC(=O)c1nnn(-c2ccccc2F)c1-c1ccccn1  0.41%
76. Cc1cc(NC(=O)CN(c2ccccc2)C(C)C)on1  0.413%
77. Cc1cc(CN(CCO)c2ccccc2)on1  0.618%
78. NC(=O)CNC1(c2ccc(Cl)cc2)CCCC1  0.922%
79. Cc1ccc(NC(C)(C)c2nnnn2-c2ccc(Cl)cc2)c(C)c1  0.988%
80. O=C(NCC(=O)N1CCCC(c2ccccc2)CC1)c1ccoc1 (stereo not given)  1.06%
81. OCCN1CCC(CNCc2ccc(N3CCCCC3)cc2)CC1  1.15%
82. CC(=O)N1CCCN(C(=O)NC(C)c2ccc(C)o2)CC1 (stereo not given)  1.15%
83. CCOCC(=O)N1Cc2nccn2CC(CN(C)C)C1 (stereo not given)  1.2%
84. Cc1cc(C2CCCN2CCC(=O)N2CCc3sccc3C2)no1 (stereo not given)  1.59%
85. COc1ccc2cc(C3CN(C(=O)CN4CCCC4)CCO3)ccc2c1 (stereo not given)  2.28%
86. CCC(NC(=O)NCC(=O)Nc1ccc(F)cc1)c1ccncc1 (stereo not given)  2.31%
87. NC1CCc2c(ccc(=O)n2Cc2ccncc2)C1 (stereo not given)  2.44%
88. CCc1ccc(C(=O)NC[C@H]2CCCN2C(=O)c2ccc(CC)o2)o1  2.7%
89. N#Cc1ccnc(SCC2CN=C(N3CCOCC3)S2)c1 (stereo not given)  2.81%
90. COCC1(Nc2nc(C)nc3c2cnn3C)CCCC1  3.28%
91. Cc1ccccc1CC1(CO)CCCN(c2ncncc2C(C)C)C1 (stereo not given)  5.34%
92. CC(C)C[C@H](NC(=O)Nc1ccc(F)c(Cl)c1)C(=O)O  6.99%
93. Cc1ccc(C)c(NC(=O)c2cc(S(=O)(=O)N3CCSCC3)c[nH]2)c1  7.14%
94. Cc1ccc([C@]2(O)CC[C@H]3CN(Cc4cccnc4)C[C@H]32)nc1  9.25%
95. CN(C)CCOc1ccc(CNC(=O)c2cccc3[nH]ncc23)cc1  9.57%
96. CCN1CC(NC(=O)Nc2nc(C)n(C(C)C)n2)CC1=O (stereo not given)  9.96%
97. N#Cc1cccc(C(=O)N2CC(c3nc(-c4cccnc4)no3)C2)c1  10%
98. O=C(CCc1ccc(Cl)s1)N1CCCC(n2cncn2)C1 (stereo not given)  11.3%
99. O=C1CC2(CCCC2)C(=O)N1CC(O)COCc1ccccc1F (stereo not given)  12.5%
100. CN(Cc1ccc(-n2cccn2)cc1)c1nc(N)nc2c1CCNCC2  12.6%
101. CC(Cn1ccnc1)NC(=O)C1(c2ccc3c(c2)OCCO3)CCCC1 (stereo not given)  14.5%
102. CC(NCCN1CCC(N(C)C)CC1)c1ccc(F)cc1N(C)C (stereo not given)  15%
103. CC(NC(=O)CCn1cccn1)c1ccc(-n2ccnn2)cc1 (stereo not given)  15.4%
104. CCC(NC(=O)NCc1cc(Cl)ccc1OC)c1noc(C)n1 (stereo not given)  16%
105. Cc1ccnc(C(NC(=O)c2ncoc2C)C2CC2)n1 (stereo not given)  16.5%
106. COC(=O)c1ccc(N2CCN(C(=O)c3cnn(C)c3)C(C)C2)cc1 (stereo not given)  16.7%
107. CC(C)c1noc(C(C)S(=O)(=O)CC(=O)N2CCCC2)n1 (stereo not given)  17.4%
108. O=C(c1cccnc1)N1CCC2(CNS(=O)(=O)c3cnccc3O2)C1 (stereo not given)  17.8%
109. CCn1nc(C)c(CCNC(=O)C2CCCN(CC(N)=O)C2)c1C (stereo not given)  19.1%
110. CC(C(=O)N1CCCCCC1)N1CCN(c2nccs2)CC1 (stereo not given)  19.7%
111. CCCc1noc(CN2CCOCC2C)n1 (stereo not given)  20.1%
112. Cc1cccnc1C(=O)N1CCC(Cc2cnc3[nH]ccc3c2)CC1  21.2%
113. CNC(=O)C1(c2cnccn2)CCCN1C(=O)c1ccc(F)cc1 (stereo not given)  22.8%
114. CC(C)(C)n1ncc(NCC(O)c2ccccc2C(F)(F)F)c(Cl)c1=O (stereo not given)  23.5%
115. CCN1CCN(C2CCN(Cc3cc(C)on3)CC2)C1=O  49.1%
